Literature values in patent publication US10874875B2, “Irradiation device” (Photocure ASA, priority 2009, dated 2020).

Test system: CIN2 or CIN3 or a persistent CIN1
Conditions: 24 patients; local application in a thermogel formulation; illumination 17 minutes after 3-5 hours, laser 100 J/cm^2; second PDT offered for incomplete response; scored at 6 months after the first treatment

**Q.** Which complete response rate does the source give for `CCCCCCOC(=O)CCC(=O)CN` [5-ALA hexylester, 5-ALA hexyl ester] here?
**A.** Its complete response rate is 63%.
